Patent US6372243B2, “Low-oxygen fluorocarbon as an agent for ophthalmology” (Pharm pur GmbH, priority 1998, dated 2002)

Tested on: retinal blood vessels
Assay: fluorocarbon inserted into the vitreous area of the rabbit eye, examination for retinal vessel damage
Type: in vivo
Conditions: 1.2 ml into one eye each of two rabbits after gas compression of the vitreous body; durations of between two days and six weeks
Protocol: In fluorescence angiography, a narrowing of the vessels appears from the second post-operative day. As time passes, vessel occlusions, a rarefaction of the capillary bed and the development of microaneurisms appear.
This oxygen-lacking perfluorodecalin was then sterile filtered and injected into one eye each of two rabbits, whereby, prior to the injection, the vitreous body was gas compressed in a known manner. After the gas compression, the gas was […] exchanged for 1.2 ml of the deoxygenated perfluorodecalin, so that about two thirds of the vitreous body area, including the area of the retinal blood vessels, was filled with perfluorodecalin.
After durations of between two days and six weeks, the eyes were examined for vessel damage.

FC1(F)C(F)(F)C(F)(F)C2(F)C(F)(F)C(F)(F)C(F)(F)C(F)(F)C2(F)C1(F)F (stereo not shown) [oxygen-lacking perfluorodecalin, perfluorodecalin]
eyes examined for vessel damage, in comparison to the untreated eye: completely normal condition
